Laboratory results published in article PMC8041284, “Tunable Methacrylamides for Covalent Ligand Directed Release Chemistry” (Journal of the American Chemical Society, 2021).
Like-named read-outs stand apart in the source and are kept apart here.

Target: BTK (Homo sapiens, UniProt Q06187)
Assay: biochemical
[1] = read-out: BTK inhibition (%), 0.75 uM BTK, […] probe 3l, 15 min preincubation

Chain of BTK (Q06187 402-655 limits assumed): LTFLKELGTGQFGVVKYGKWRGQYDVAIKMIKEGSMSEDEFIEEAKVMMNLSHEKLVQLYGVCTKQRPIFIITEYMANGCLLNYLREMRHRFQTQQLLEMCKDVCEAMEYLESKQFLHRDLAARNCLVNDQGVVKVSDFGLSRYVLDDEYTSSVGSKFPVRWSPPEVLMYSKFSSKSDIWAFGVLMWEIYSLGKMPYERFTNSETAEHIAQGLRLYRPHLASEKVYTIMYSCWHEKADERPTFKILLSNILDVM

Row | SMILES | inhibition at 10 µM [1] | inhibition at 10 µM (read-out: BTK inhibition (%))
1 | N[C@@]1(C(=O)O)CS(=O)(=O)[C@H]2[C@H](C(=O)O)[C@H]21 [PCM-0215191] | 9.4% | 
2 | CC(C)(C)NCC(O)c1cc(O)cc(O)c1 (stereo not shown) [PCM-0064743] | -26.4% | 
3 | ClCCN(Cc1ccccc1)Cc1ccccc1 [PCM-0216162] |  | -20.1%
4 | COc1cc(Cc2cnc(N)nc2N)cc(OC)c1OC [PCM-0065007] | -7.8% | 
5 | COc1cc([C@H]2Oc3cc([C@H]4Oc5cc(O)cc(O)c5C(=O)[C@@H]4O)ccc3O[C@@H]2CO)ccc1O [PCM-0088703] | 24.1% | 
6 | Nc1nc(Cl)nc2c1ncn2[C@@H]1O[C@H](CO)[C@@H](O)[C@@H]1F [PCM-0094949] | 1.4% | 
7 | C=CC[C@]1(O)CC[C@H]2[C@@H]3CCC4=CC(=O)CCC4=C3C=C[C@@]21C [PCM-0095614] | -4.7% | 
8 | NC(N)=N/N=C/c1c(Cl)cccc1Cl [PCM-0065199] | -2.3% | 
9 | CN(CCO)CC(O)Cn1cnc2c1c(=O)n(C)c(=O)n2C (stereo not shown) [PCM-0215123] | 9.3% | 
10 | CC(=O)Nc1ccc(OC[C@](C)(O)C(=O)Nc2ccc([N+](=O)[O-])c(C(F)(F)F)c2)cc1 [PCM-0094957] |  | -1.4%
11 | Cc1ncc([N+](=O)[O-])n1C [PCM-0216192] | -21.4% | 
12 | CC(C)C1CCC(C(=O)N[C@H](Cc2ccccc2)C(=O)O)CC1 (stereo partly shown) [PCM-0095239] | -4.7% | 
13 | CN1CCN(c2ccc(-c3ccncc3-c3cc(F)c(O)c(F)c3)cc2)CC1 [PCM-0215608] | 6.2% | 
14 | CC(=O)Oc1c(C)c(C)c2c(c1C)CC[C@@](C)(CCC[C@H](C)CCC[C@H](C)CCCC(C)C)O2 [PCM-0215944] | 0% | 
15 | Cc1cn(-c2cc(NC(=O)c3ccc(C)c(Nc4nccc(-c5cnccn5)n4)c3)cc(C(F)(F)F)c2)cn1 [PCM-0215584] | -4.1% | 
16 | COc1ccccc1Oc1c(NS(=O)(=O)c2ccc(C(C)(C)C)cc2)nc(-c2ncccn2)nc1OCCO [PCM-0086316] | -7.8% | 
17 | Cc1c(OCC(F)(F)F)ccnc1C[S+]([O-])c1nc2ccccc2[nH]1 (stereo not shown) [PCM-0065586] | -3.9% | 
18 | CCOc1nc2cccc(C(=O)OCc3oc(=O)oc3C)c2n1Cc1ccc(-c2ccccc2-c2noc(=O)[nH]2)cc1 [PCM-0090373] | 24.1% | 
19 | OCc1ccc(O)cc1 [PCM-0215041] | 9.3% | 
20 | CC(C)(N)C(=O)N[C@H](COCc1ccccc1)C(=O)N1CCC2(CC1)CN(S(C)(=O)=O)c1ccccc12 [PCM-0216059] | -11.7% | 
21 | CCNC(=O)[C@@H]1CCCN1C(=O)[C@H](CCCN=C(N)N)NC(=O)[C@H](CC(C)C)NC(=O)[C@@H](C)NC(=O)[C@H](Cc1ccc(O)cc1)NC(=O)[C@H](CO)NC(=O)[C@H](Cc1c[nH]c2ccccc12)NC(=O)[C@H](Cc1cnc[nH]1)NC(=O)C1CCC(=O)N1 (stereo partly shown) [PCM-0216272] | 23.8% | 
22 | O=C(O)/C=C/c1ccc(O)c(O)c1 [PCM-0064590] | -21.8% | 
23 | CCOCCn1c(N2CCCN(C)CC2)nc2ccccc21 [PCM-0086037] | 2.3% | 
24 | CCC[C@H](NC(=O)/C(C#N)=C/c1cccc(Br)n1)c1ccccc1 [PCM-0095282] | 24.8% | 
25 | CO/N=C(\C(=O)N[C@@H]1C(=O)N2C(C(=O)O)=C(C[N+]3(C)CCCC3)CS[C@H]12)c1csc(N)n1 [PCM-0214905] | -10.1% | 
26 | CN(C)CC/C=C1/c2ccccc2COc2ccc(CC(=O)O)cc21 [PCM-0086250] | 8.3% | 
27 | CS(=O)(=O)c1ccc(-c2cnc(NCc3ccco3)n3cnnc23)cc1 [PCM-0215813] | -6.9% | 
28 | CO/N=C(\C(=O)N[C@@H]1C(=O)N2C(C(=O)O)=C(Cn3ccc(=N)n3CCO)CS[C@H]12)c1csc(N)n1 [PCM-0215184] | 9.4% | 

Row | SMILES | inhibition at 10 µM [1] | inhibition at 10 µM (read-out: BTK inhibition (%))
29 | CC(C)[C@H]1C(=O)N[C@@H](CCCN=C(N)N)C(=O)NCC(=O)N[C@@H](CC(=O)O)C(=O)N[C@H](Cc2ccccc2)C(=O)N1C [PCM-0095583] | -6.9% | 
30 | CC(OC(=O)OC1CCCCC1)OC(=O)C1=C(CSc2nnnn2CCN(C)C)CS[C@@H]2[C@H](NC(=O)Cc3csc(N)n3)C(=O)N12 (stereo partly shown) [PCM-0216590] | 4.6% | 
31 | Cc1cc(S(=O)(=O)O)c2c(C)ccc(C(C)C)cc1-2 [PCM-0216127] | 37.2% | 
32 | O=c1[nH]c(=O)n([C@H]2C[C@H](O)[C@@H](CO)O2)cc1F [PCM-0086169] | -3.9% | 
33 | Cc1cncc(CN2CCC(=C3c4ccc(Cl)cc4CCc4cccnc43)CC2)c1 [PCM-0095542] | -7.6% | 
34 | O=C(O)[C@H](O)[C@H](O)[C@@H](O)[C@H](O)[C@H](O)CO [PCM-0215251] | -28.9% | 
35 | N[C@H]1C[C@@H]1c1ccc(-c2cccc(O)c2)cc1 [PCM-0095788] | -1.5% | 
36 | O=C(c1ccc(F)c(F)c1Nc1ccc(I)cc1F)N1CC(O)([C@@H]2CCCCN2)C1 [PCM-0215480] | -5.5% | 
37 | Cc1cc(O)c(C(=O)CCC(C)C)c(=O)o1 [PCM-0216387] | 5.4% | 
38 | COC(c1ccccc1)(c1ccccc1)[C@H](Oc1nc(C)cc(C)n1)C(=O)O [PCM-0095259] | 10.9% | 
39 | C=C1C[C@@H]2[C@H](CC[C@]3(C)C(=O)CC[C@@H]23)[C@@]2(C)C=CC(=O)C=C12 [PCM-0214605] | -6.9% | 
40 | COc1ccc(-c2cc(=O)c3c(O)cc(O[C@@H]4O[C@H](CO[C@@H]5O[C@@H](C)[C@H](O)[C@@H](O)[C@H]5O)[C@@H](O)[C@H](O)[C@H]4O)cc3o2)cc1 [PCM-0216526] | 14.7% | 
41 | Cn1c(=O)c2c(ncn2CC(O)CO)n(C)c1=O (stereo not shown) [PCM-0085824] | 0.8% | 
42 | NC(=O)N1c2ccccc2C=Cc2ccccc21 [PCM-0064618] | 9.3% | 
43 | C[C@@H](N)C(=O)N[C@@H](CO)C(=O)N[C@H](C(=O)N[C@H](C(=O)N[C@H](C(=O)N[C@@H](CC(N)=O)C(=O)N[C@@H](Cc1ccc(O)cc1)C(=O)N[C@H](C(N)=O)[C@@H](C)O)[C@@H](C)O)[C@@H](C)O)[C@@H](C)O [PCM-0215819] | 11.1% | 
44 | C=C(C)C1CC=C(/C=N/O)CC1 (stereo not shown) [PCM-0216339] | -2.3% | 
45 | CC(C)CN(CC(=O)N1CCN(CC(OCc2ccc3ccccc3c2)c2ccc(Cl)cc2Cl)CC1)CC(C)C (stereo not shown) [PCM-0215889] | 93.4% | 
46 | Cc1cc(N2C[C@@H](C)N[C@@H](C)C2)ncc1-c1ccc(-c2nc3c(ccn3C)c(=O)[nH]2)cc1 [PCM-0215615] | 7.7% | 
47 | COc1cc2oc(=O)ccc2cc1O [PCM-0216502] | -10% | 
48 | CC12CCC(CC1)C(C)(C)O2 [PCM-0215918] | 11% | 
49 | CCCc1cc(C)[nH]c(=O)c1CNC(=O)c1cc(-c2ccc(N3CCN(C)CC3)nc2)nc2c1cnn2C(C)C [PCM-0215988] | 15.4% | 
50 | COc1cc(Br)c(Nc2nc(-c3c(C)nc4ncccn34)cs2)c(Br)c1 [PCM-0095777] |  | 34%
51 | Oc1ccc2c(c1)OC[C@]1(O)Cc3cc(O)c(O)cc3[C@H]21 [PCM-0216323] | 0% | 
52 | Nc1cccc2c1CN(C1CCC(=O)NC1=O)C2=O (stereo not shown) [PCM-0094938] | 14.5% | 
53 | O=C1CN2Cc3c(ccc(Cl)c3Cl)N=C2N1 [PCM-0090482] | -15.2% | 
54 | COc1cc2nccc(Oc3ccc(NC(=O)Nc4cc(C)on4)c(Cl)c3)c2cc1OC [PCM-0094927] | 84.1% | 
55 | COc1cc2c(Nc3ccc(Br)cc3F)ncnc2cc1OCC1CCN(C)CC1 [PCM-0094968] | 25.5% | 
